Where a name gives a salt, the structure may show the parent alone.

This is an account of results in patent US20220381657A1, “METHOD FOR PREPARING BIOLOGICAL MATERIAL HAVING EXCELLENT LIGHT-TRANSMITTING PROPERTY” (RIKEN, priority 2016, published 2022).

System in the first series: not given
Assay: not given
Conditions: Table 1.
Molecule `CCCCN(CCO)CCO` [#0414, N-Butyldiethanolamine] showed a pH of 12.7.

Molecule `CCCCCCCCCCCC[n+]1ccccc1.[Cl-]` [#0635, 1-Dodecylpyridinium chloride] displayed a pH of 8.9.

In turn, `CCCCC(O)CO` (stereo not drawn) [#1051, 1,2-Hexanediol] returned a pH of 9.3.

Consider “Decyldimethyl(3- sulfopropyl)ammonium [#0651]”, for which the pH is 7.5.

The series is the same for the next values; noted with them: Table 3.
`NCCN1CCNCC1` [#0338, N-(2-Aminoethyl) piperazine] had a pH of 12.4.

Regarding `OCCNCc1ccccc1` [#0389, N-Benzyl- ethanolamine], the pH is 10.9.

With `CCCC[n+]1ccccc1.[Cl-]` [#0415, 1-Butyl-pyridinium chloride], the pH is 5.5.

As for `C[N+](C)(Cc1ccccc1)c1ccccc1.[Cl-]` [#0450, Benzyl- dimethyl- phenyl- ammonium chloride], the pH turned out to be 6.7.

In the case of `CCN(CC)C(=O)c1cccnc1` [#0609, N,N-Diethyl- nicotinamide], the pH stood at 6.4.

For `CN(C)C(=O)c1ccccc1` [#0788, N,N- Dimethyl- benzamide], the pH was 10.7.

Turning to `CN(C)CCSC(=N)N` [#0830, S-[2-(Dimethyl-amino)ethyl] isothiourea-dihydrochloride], the pH is on record as 5.4.

The series is the same for the next values; noted with them: […].
`OCCNCc1ccccc1` [#0389, N-Benzyl- ethanolamine] returned a pH of 10.9.

As for `CCCCN(CCO)CCO` [#0414, N-Butyldiethanolamine], the pH turned out to be 12.7.

As for `CCCCCCCCCCCC[n+]1ccccc1.[Cl-]` [#0635, 1-Dodecylpyridinium chloride], the pH was determined as 8.9.

As to `CN(C)C(=O)c1ccccc1` [#0788, N,N- Dimethyl- benzamide], the pH is given as 10.7.

In turn, “Decyldimethyl(3- sulfopropyl)ammonium [#0651]” returned a pH of 7.5.

In a further series the test system is bovine coagulated blood. As to the kind of experiment: Decoloring screening: heme eluted from bovine coagulated blood (OD420-OD700). The conditions noted are these: decolorization; OD420 calibrated by OD700.
Regarding `OCCNCc1ccccc1` [#0389, N-Benzyl- ethanolamine], the “700 nm calibrated 420 nm Average” value came to 2.73.

For `CCCCN(CCO)CCO` [#0414, N-Butyldiethanolamine], the “700 nm calibrated 420 nm Average” value was determined as 1.30.

As to `CCCCCCCCCCCC[n+]1ccccc1.[Cl-]` [#0635, 1-Dodecylpyridinium chloride], the “700 nm calibrated 420 nm Average” value is 3.86.

Turning to `CN(C)C(=O)c1ccccc1` [#0788, N,N- Dimethyl- benzamide], the “700 nm calibrated 420 nm Average” value amounted to 1.26.

On to “Decyldimethyl(3- sulfopropyl)ammonium [#0651]”, for which the “700 nm calibrated 420 nm Average” value was determined as 3.73.

The series is the same for the next values; noted with them: decolorization; integrated absorbance 500-700 nm.
`OCCNCc1ccccc1` [#0389, N-Benzyl- ethanolamine]: the “integrated value 500-700 nm Average” value is reported as 2.42.

On to `CCCCN(CCO)CCO` [#0414, N-Butyldiethanolamine], for which the “integrated value 500-700 nm Average” value came out at 1.45.

As for `CCCCCCCCCCCC[n+]1ccccc1.[Cl-]` [#0635, 1-Dodecylpyridinium chloride], the “integrated value 500-700 nm Average” value came out at 3.57.

`CN(C)C(=O)c1ccccc1` [#0788, N,N- Dimethyl- benzamide]: the “integrated value 500-700 nm Average” value is 1.08.

With “Decyldimethyl(3- sulfopropyl)ammonium [#0651]”, the “integrated value 500-700 nm Average” value came out at 3.28.

A further series has as its system fixed brain tissue suspension. Kind of series: 1st delipidation assay: solubilization of fixed brain tissue suspension, turbidity at 600 nm. The conditions noted are these: Table 1; 10 wt % chemical, fixed mouse brain suspension, 37° C. overnight; PBS = 1.000. Also on record: species or system mice. As for the experimental part: Specifically, brains taken out of mice were sheared with a utility knife and then were disrupted by ultrasonication. To each of the resultant suspensions, an equal volume of 8% PFA solution was added to perform fixation at 4° C. for 1 hour. The resultant mixture was centrifuged to remove the supernatant, and the fixed brain tissue was washed with PBS for 3 times. PBS was added so as to obtain 2 mL of a fixed brain tissue suspension per brain. The fixed brain tissue suspension was diluted by 3.5 folds. To 20 μL of the resultant suspension, 130 μL of each 10 wt % chemical was added and was shaken at 37° C. overnight. Thus obtained mixed solutions were subjected to absorbance (turbidity) measurement at 600 nm. It is expected that a chemical solution which reduces the turbidity of a fixed brain suspension allows reducing light scattering by solubilizing lipids, which act as a scattering factor, in the brain tissue.
Take `CCCCN(CCO)CCO` [#0414, N-Butyldiethanolamine]: the “1st delipidation assay Relative OD600” value is listed as 0.261.

Regarding `CCCCC(O)CO` (stereo not drawn) [#1051, 1,2-Hexanediol], the “1st delipidation assay Relative OD600” value is given as 0.300.

The next series has as its system Serius.
Assay: not given
Conditions: relative fluorescence.
In the case of `OCCNCc1ccccc1` [#0389, N-Benzyl- ethanolamine], the “Fluorescence quench Average” value is 0.57.

Turning to `CCCCN(CCO)CCO` [#0414, N-Butyldiethanolamine], the “Fluorescence quench Average” value is listed as 0.70.

Take `CCCCCCCCCCCC[n+]1ccccc1.[Cl-]` [#0635, 1-Dodecylpyridinium chloride]: the “Fluorescence quench Average” value is on record as 1.04.

As to `CN(C)C(=O)c1ccccc1` [#0788, N,N- Dimethyl- benzamide], the “Fluorescence quench Average” value is 0.76.

For “Decyldimethyl(3- sulfopropyl)ammonium [#0651]”, the “Fluorescence quench Average” value came to 0.97.

The next series deals with EGFP (Aequorea victoria, UniProt P42212, F64L/H231L/S65T).
Assay: not given
Conditions: Table 3. Format: biochemical. As for the experimental part: (FIG. 7). […] A mouse hemisphere was treated with use of each 10 wt % chemical solution at 37° C. for 3 days, and was washed with PBS. Subsequently, the mouse hemisphere was subjected to refractive index adjustment with CUBIC-2A.
As to `OCCNCc1ccccc1` [#0389, N-Benzyl- ethanolamine], the “2nd quenching assay EGFP fluorescence” value is recorded as “quench free”.

On to `C[N+](C)(Cc1ccccc1)c1ccccc1.[Cl-]` [#0450, Benzyl- dimethyl- phenyl- ammonium chloride], for which the “2nd quenching assay EGFP fluorescence” value is on record as “quench free”.

As for `CN(C)C(=O)c1ccccc1` [#0788, N,N- Dimethyl- benzamide], the “2nd quenching assay EGFP fluorescence” value was “quench free”.

Staying with this series, now noted: stated in the description.
Regarding `OCCNCc1ccccc1` [#0389, N-Benzyl- ethanolamine], the “retention of fluorescence of a fluorescent protein” value (from here on “retention”) is “allowing retention of fluorescence of a fluorescent protein”.

With `C[N+](C)(Cc1ccccc1)c1ccccc1.[Cl-]` [#0450, Benzyl- dimethyl- phenyl- ammonium chloride], the “retention” value is reported as “allowing retention of fluorescence of a fluorescent protein”.

Take `CCCCCCCCCCCC[n+]1ccccc1.[Cl-]` [#0635, 1-Dodecylpyridinium chloride]: the “retention” value is on record as “allows fluorescence of a fluorescent protein to be retained”.

Turning to `CN(C)C(=O)c1ccccc1` [#0788, N,N- Dimethyl- benzamide], the “retention” value is “allowing retention of fluorescence of a fluorescent protein”.

“Decyldimethyl(3- sulfopropyl)ammonium [#0651]”: the “retention” value is “allows fluorescence of a fluorescent protein to be retained”.

The test system of the next series is mouse hemisphere. Kind of series: Delipidation and clearing of mouse hemisphere (transmittance, phospholipid and cholesterol content). Conditions: 10 wt % chemical, 37° C., 3 days, then CUBIC-2A; compared with detergents #1035, #1455, #1460, Triton X-100. The procedure: Subsequently, the delipidation efficiency of the series of compounds in mammalian tissue was examined. […] The transmittance of the brain tissue was measured, and then the brain tissue was washed with PBS and was disrupted. […] It was thus shown that the above basic chemicals and some neutral chemicals were better than the detergents from the viewpoint of permeability with respect to tissue. […] Subsequently, the mouse hemisphere was subjected to refractive index adjustment with CUBIC-2A. […] Accordingly, #0414 (N-butyldiethanolamine) was selected as a highly-efficient delipidation chemical.
Take `CCCCC(O)CO` (stereo not drawn) [#1051, 1,2-Hexanediol]: the “degree of delipidation and clearing of mouse hemisphere” value was “higher degrees of delipidation and clearing”.

The same series, now with this note: #0414 versus #0389, basic chemicals.
As for `CCCCN(CCO)CCO` [#0414, N-Butyldiethanolamine], the organ transparency result is “superiority”.

System in the next series: not listed separately
Kind of series: Refractive index of high-concentration aqueous solution. The conditions noted are these: Table 3; chemical conc. 70 wt %. Format: physicochemical. The source says: The refractive index of an aqueous solution is commonly known to increase in a solute concentration-dependent manner, and the refractive index of a reagent per unit weight of the reagent varies among individual reagents. Accordingly, two properties are required in order to prepare a high refractive index aqueous solution: (1) an extremely high water-solubility and (2) a […] which allows achieving a high refractive index in a low-concentration aqueous solution.
Turning to `OCCNCc1ccccc1` [#0389, N-Benzyl- ethanolamine], the RI was found to be 1.4814.

`C[N+](C)(Cc1ccccc1)c1ccccc1.[Cl-]` [#0450, Benzyl- dimethyl- phenyl- ammonium chloride]: the RI is given as 1.5002.

`CN(C)C(=O)c1ccccc1` [#0788, N,N- Dimethyl- benzamide] registered an RI of 1.4833.

The molecule `CN(C)CCSC(=N)N` [#0830, S-[2-(Dimethyl-amino)ethyl] isothiourea-dihydrochloride] showed an RI of 1.5021.

The same series, now with this note: Table 3; chemical conc. 75 wt %.
Take `NCCN1CCNCC1` [#0338, N-(2-Aminoethyl) piperazine]: the RI turned out to be 1.4794.

The series is the same for the next values; noted with them: Table 3; chemical conc. 80 wt %.
`CCN(CC)C(=O)c1cccnc1` [#0609, N,N-Diethyl- nicotinamide] registered an RI of 1.4928.

Staying with this series, now noted: Table 3; chemical conc. 90 wt %.
With `CCCC[n+]1ccccc1.[Cl-]` [#0415, 1-Butyl-pyridinium chloride], the RI is given as 1.4824.

System in the next series: not given
Assay: not given
Conditions: OD at 400 nm of the chemical.
For `OCCNCc1ccccc1` [#0389, N-Benzyl- ethanolamine], the 400 nm worked out at 0.063.

`CCCCN(CCO)CCO` [#0414, N-Butyldiethanolamine] came in with a 400 nm of 0.05.

With `CCCCCCCCCCCC[n+]1ccccc1.[Cl-]` [#0635, 1-Dodecylpyridinium chloride], the 400 nm is on record as 0.053.

Molecule `CN(C)C(=O)c1ccccc1` [#0788, N,N- Dimethyl- benzamide] came in with a 400 nm of 0.049.

Consider “Decyldimethyl(3- sulfopropyl)ammonium [#0651]”, for which the 400 nm was 0.048.

Still in this series, the particulars now being: Table 1.
In turn, `CCCCN(CCO)CCO` [#0414, N-Butyldiethanolamine] yielded an OD400 of 0.05.

On to `CCCCCCCCCCCC[n+]1ccccc1.[Cl-]` [#0635, 1-Dodecylpyridinium chloride], for which the OD400 was determined as 0.053.

Take `CCCCC(O)CO` (stereo not drawn) [#1051, 1,2-Hexanediol]: the OD400 came out at 0.048.

With “Decyldimethyl(3- sulfopropyl)ammonium [#0651]”, the OD400 was found to be 0.048.

Staying with this series, now noted: Table 3.
For `NCCN1CCNCC1` [#0338, N-(2-Aminoethyl) piperazine], the OD400 was 0.062.

Take `OCCNCc1ccccc1` [#0389, N-Benzyl- ethanolamine]: the OD400 is on record as 0.063.

In the case of `CCCC[n+]1ccccc1.[Cl-]` [#0415, 1-Butyl-pyridinium chloride], the OD400 was 0.055.

The molecule `C[N+](C)(Cc1ccccc1)c1ccccc1.[Cl-]` [#0450, Benzyl- dimethyl- phenyl- ammonium chloride] came in with an OD400 of 0.052.

For `CCN(CC)C(=O)c1cccnc1` [#0609, N,N-Diethyl- nicotinamide], the OD400 was determined as 0.056.

As for `CN(C)C(=O)c1ccccc1` [#0788, N,N- Dimethyl- benzamide], the OD400 is 0.049.

The molecule `CN(C)CCSC(=N)N` [#0830, S-[2-(Dimethyl-amino)ethyl] isothiourea-dihydrochloride] registered an OD400 of 0.047.
